# Laboratory results from ChEMBL document CHEMBL5512668, “Macrocyclic Azapeptide Nitriles: Structure-Based Discovery of Potent SARS-CoV-2 Main Protease Inhibitors as Antiviral Drugs” (J Med Chem, 2024).
# pIC50, pKi: −log10 of the molar value.
# Molecular target: T1, Replicase polyprotein 1ab (Severe acute respiratory syndrome coronavirus 2, UniProt P0DTD1)
# Details: not given
row,Compound,pIC50
1,CN(C(=O)[C@H](Cc1ccccc1)NC(=O)OCc1ccccc1)N(C#N)Cc1cccc(Br)c1,7.07
2,CN(C(=O)[C@H](Cc1ccccc1)NC(=O)OCc1ccccc1)N(C#N)Cc1ccccc1F,6.86
3,CN(C(=O)[C@H](Cc1ccccc1)NC(=O)OCc1ccccc1)N(C#N)Cc1ccc(Cl)cc1,6.59
4,Cc1csc(C(=O)N[C@H](C(=O)N[C@@H](Cc2ccccc2)C(=O)N(C)N(C#N)Cc2ccc(Cl)cc2)C(C)(C)C)c1,7.15
5,CN(C(=O)[C@H](Cc1ccccc1)NC(=O)CNc1ccc(F)cc1F)N(C#N)Cc1ccc(Cl)cc1,6.02
6,CN(C(=O)[C@H](Cc1ccccc1)NC(=O)OCc1ccccc1)N(C#N)Cc1ccc([N+](=O)[O-])cc1,6.68
7,COc1cccc(OCC(=O)N[C@@H](Cc2ccccc2)C(=O)N(C)N(C#N)Cc2ccc(Cl)cc2)c1,5.91
8,CN(C(=O)[C@H](Cc1ccccc1)NC(=O)CNc1ccc(F)c(F)c1)N(C#N)Cc1ccc(Cl)cc1,6.46
9,COc1ccc(Cl)c(F)c1CN(C#N)N(C)C(=O)[C@H](Cc1ccccc1)NC(=O)OCc1ccccc1,6.41
10,COc1ccc(NCC(=O)N[C@@H](Cc2ccccc2)C(=O)N(C)N(C#N)Cc2ccc(Cl)cc2)c(Cl)c1,6.17
11,COc1ccc(OC)c(CN(C#N)N(C)C(=O)[C@H](Cc2ccccc2)NC(=O)OCc2ccccc2)c1,6.08
12,CN(C(=O)[C@H](Cc1ccccc1)NC(=O)COc1ccc(F)c(F)c1)N(C#N)Cc1ccc(Cl)cc1,5.94
13,CN(C(=O)[C@H](Cc1ccc(F)cc1)NC(=O)[C@@H](NC(=O)c1cccs1)C(C)(C)C)N(C#N)Cc1cccc(Cl)c1F,7.60
14,CN(C(=O)[C@H](Cc1ccccc1)NC(=O)COc1cccc(F)c1Br)N(C#N)Cc1ccc(Cl)cc1,5.99
15,CN(C(=O)[C@H](Cc1ccccc1)NC(=O)OCc1ccccc1)N(C#N)Cc1ccccc1Br,6.73
16,CN(C(=O)[C@H](Cc1ccccc1)NC(=O)[C@@H](Nc1ccc([N+](=O)[O-])cc1[N+](=O)[O-])C(C)(C)C)N(C#N)Cc1ccc(Cl)cc1,5.65
17,CN(C(=O)[C@H](Cc1ccccc1)NC(=O)OCc1ccccc1)N(C#N)Cc1ccc(Br)cc1F,6.98
18,CN1C(=O)[C@H](Cc2ccccc2)N(C(=O)COc2ccc(Cl)cc2Cl)CCCCOc2ccc(F)cc2CN1C#N,7.38
19,CN(C(=O)[C@H](Cc1ccccc1)NC(=O)COc1ccc(F)cc1)N(C#N)Cc1ccc(Cl)cc1,5.91
20,CN(C(=O)[C@H](Cc1ccccc1)NC(=O)COc1cccc(Cl)c1)N(C#N)Cc1ccc(Cl)cc1,5.97
21,CN(C(=O)[C@H](Cc1ccccc1)NC(=O)COc1ccc(Cl)cc1Cl)N(C#N)Cc1ccc(Cl)cc1,5.74

row,Compound,pIC50
1,CN(C(=O)[C@H](Cc1ccccc1)NC(=O)OCc1ccccc1)N(C#N)Cc1ccc(Br)cc1Cl,6.84
2,CN(C(=O)[C@H](Cc1ccccc1)NC(=O)OCc1ccccc1)N(C#N)Cc1c(F)cc(Br)cc1F,7.09
3,CN(C(=O)[C@H](Cc1ccccc1)NC(=O)[C@@H](NC(=O)c1cccs1)C1CCCCC1)N(C#N)Cc1ccc(Cl)cc1,7.74
4,CN1C(=O)[C@H](Cc2ccccc2)N(C(=O)COc2ccc(Cl)cc2Cl)CCCOc2ccc(F)cc2CN1C#N,7.60
5,COc1cccc2[nH]c(C(=O)N[C@@H](Cc3ccccc3)C(=O)N(C)N(C#N)Cc3ccc(Cl)cc3)cc12,7.64
6,CN(C(=O)[C@H](Cc1ccccc1)NC(=O)OCc1ccccc1)N(C#N)Cc1cccc(Cl)c1F,7.46
7,CN(C(=O)[C@H](Cc1ccccc1)NC(=O)CCc1ccc(F)c(F)c1)N(C#N)Cc1ccc(Cl)cc1,5.85
8,CN(C(=O)[C@H](Cc1cccs1)NC(=O)[C@@H](NC(=O)c1cccs1)C(C)(C)C)N(C#N)Cc1cccc(Cl)c1F,8.05
9,CN(C(=O)[C@H](Cc1ccccc1)NC(=O)OCc1ccccc1)N(C#N)Cc1ccc(Br)c(Cl)c1F,6.90
10,COc1cccc(CN(C#N)N(C)C(=O)[C@H](Cc2ccccc2)NC(=O)OCc2ccccc2)c1F,6.93
11,CN(C(=O)[C@H](Cc1ccccc1)NC(=O)[C@@H](NC(=O)c1cccs1)C(C)(C)C)N(C#N)Cc1cccc(Cl)c1F,7.82
12,CN(C(=O)[C@H](Cc1ccccc1)NC(=O)CNc1c(F)cccc1F)N(C#N)Cc1ccc(Cl)cc1,6.01
13,CN(C(=O)[C@H](Cc1ccccc1Cl)NC(=O)[C@@H](NC(=O)c1cccs1)C(C)(C)C)N(C#N)Cc1cccc(Cl)c1F,7.59
14,CN(C(=O)[C@H](Cc1ccccc1)NC(=O)OCc1ccccc1)N(C#N)Cc1ccc(Br)c(F)c1,6.69
15,CN(C(=O)[C@H](Cc1ccccc1)NC(=O)C1(NC(=O)c2cccs2)CC1)N(C#N)Cc1ccc(Cl)cc1,6.25
16,CCCS(=O)(=O)N[C@H](C(=O)N[C@@H](Cc1ccccc1)C(=O)N(C)N(C#N)Cc1ccc(Cl)cc1)C(C)(C)C,6.81
17,CN(C(=O)[C@H](Cc1ccccc1)NC(=O)OCc1ccccc1)N(C#N)Cc1ccsc1,6.38
18,CN(C(=O)[C@H](Cc1ccccc1)NC(=O)OCc1ccccc1)N(C#N)Cc1cccc(F)c1,6.85
19,COc1c(Cl)cccc1CN(C#N)N(C)C(=O)[C@H](Cc1ccccc1)NC(=O)OCc1ccccc1,6.37
20,CN(C(=O)[C@H](Cc1cccc(Cl)c1)NC(=O)[C@@H](NC(=O)c1cccs1)C(C)(C)C)N(C#N)Cc1cccc(Cl)c1F,8.05
21,CN(C(=O)[C@H](Cc1ccccc1)NC(=O)c1cc2cc(Cl)ccc2[nH]1)N(C#N)Cc1ccc(Cl)cc1,7.11

row,Compound,pIC50
1,CN(C(=O)[C@H](Cc1ccccc1)NC(=O)[C@@H](NC(=O)c1ccc(-c2cccs2)s1)C(C)(C)C)N(C#N)Cc1ccc(Cl)cc1,6.27
2,CN(C(=O)[C@H](Cc1cccc(F)c1)NC(=O)[C@@H](NC(=O)c1cccs1)C(C)(C)C)N(C#N)Cc1cccc(Cl)c1F,8.40
3,CN(C(=O)[C@H](Cc1ccccc1)NC(=O)OCc1ccccc1)N(C#N)Cc1ccc(F)cc1,6.53
4,CN1C(=O)[C@H](Cc2ccccc2)N(C(=O)COc2ccc(Cl)cc2Cl)CCCCCOc2ccc(F)cc2CN1C#N,7.32
5,COc1ccc(CN(C#N)N(C)C(=O)[C@H](Cc2ccccc2)NC(=O)OCc2ccccc2)cc1,6.46
6,CN(C(=O)[C@H](Cc1ccccc1)NC(=O)OCc1ccccc1)N(C#N)Cc1cc(Cl)ccc1F,6.92
7,CN(C(=O)[C@H](Cc1ccccc1)NC(=O)[C@@H](NC(=O)C1(F)CC1)C(C)(C)C)N(C#N)Cc1ccc(Cl)cc1,7.30
8,CN(C(=O)[C@H](Cc1ccccc1)NC(=O)COc1ccc2c(c1)NC(=O)CC2)N(C#N)Cc1ccc(Cl)cc1,6.02
9,CN(C(=O)[C@H](Cc1ccccc1)NC(=O)OCc1ccccc1)N(C#N)Cc1ccco1,6.69
10,CN(C(=O)[C@H](Cc1ccccc1)NC(=O)OCc1ccccc1)N(C#N)Cc1ccc(Br)c(Cl)c1,6.72
11,COc1ccc(OCC(=O)N[C@@H](Cc2ccccc2)C(=O)N(C)N(C#N)Cc2ccc(Cl)cc2)cc1,5.91
12,CN(C(=O)[C@H](Cc1ccccc1)NC(=O)OCc1ccccc1)N(C#N)Cc1ccc(Br)cc1,6.70
13,CN(C(=O)[C@H](Cc1ccccc1)NC(=O)OCc1ccccc1)N(C#N)Cc1cccc(Cl)c1,7.06
14,CN(C(=O)[C@H](Cc1ccccc1)NC(=O)COc1ccc(Cl)cc1)N(C#N)Cc1ccc(Cl)cc1,5.89
15,CN(C(=O)[C@H](Cc1ccccc1F)NC(=O)[C@@H](NC(=O)c1cccs1)C(C)(C)C)N(C#N)Cc1cccc(Cl)c1F,7.72
16,CN1C(=O)[C@H](Cc2ccccc2)NC(=O)COCCOc2ccc(F)cc2CN1C#N,6.65
17,CN1C(=O)[C@H](Cc2ccccc2)N(C(=O)CNC(=O)c2cccs2)CC2(CC2)COc2c(Cl)cccc2CN1C#N,7.52
18,CN(C(=O)[C@H](Cc1ccccc1)NC(=O)[C@@H](NC(=O)C(F)(F)F)C(C)(C)C)N(C#N)Cc1ccc(Cl)cc1,7.48
19,CN(C(=O)[C@H](Cc1ccccc1)NC(=O)OCc1ccccc1)N(C#N)Cc1ccccc1Cl,6.83
20,CN(C(=O)[C@H](Cc1ccccc1)NC(=O)COc1cccc2ccccc12)N(C#N)Cc1ccc(Cl)cc1,5.97

# Molecular target: T1, Replicase polyprotein 1ab
# Details: not given
# Remark: another data set of the same source
row,Compound,pKi
1,CN(C(=O)[C@H](Cc1ccccc1)NC(=O)[C@@H](NC(=O)c1cccs1)C1CCCCC1)N(C#N)Cc1ccc(Cl)cc1,7.89
2,CN(C(=O)[C@H](Cc1cccs1)NC(=O)[C@@H](NC(=O)c1cccs1)C(C)(C)C)N(C#N)Cc1cccc(Cl)c1F,8.19
3,CN1C(=O)[C@H](Cc2ccccc2)N(C(=O)CNC(=O)c2cccs2)CC2(CC2)COc2c(Cl)cccc2CN1C#N,7.68

# Molecular target: Procathepsin L (Homo sapiens, UniProt P07711)
# Assay: Inhibition of human cathepsin L using Z-Phe-Arg-pNA as substrate incubated for 60 mins
# Details: not given
# Sequence of Procathepsin L (P07711 whole entry): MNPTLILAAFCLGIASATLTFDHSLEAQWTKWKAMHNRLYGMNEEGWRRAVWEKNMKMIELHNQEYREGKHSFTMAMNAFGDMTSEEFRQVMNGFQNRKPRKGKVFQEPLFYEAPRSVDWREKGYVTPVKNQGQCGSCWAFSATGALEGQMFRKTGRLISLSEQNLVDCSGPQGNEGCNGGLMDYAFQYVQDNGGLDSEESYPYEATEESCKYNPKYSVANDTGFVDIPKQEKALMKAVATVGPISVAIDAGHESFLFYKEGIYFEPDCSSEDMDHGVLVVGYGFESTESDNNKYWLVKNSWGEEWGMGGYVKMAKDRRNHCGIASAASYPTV
row,Compound,pKi
1,CN(C(=O)[C@H](Cc1ccccc1)NC(=O)[C@@H](NC(=O)c1cccs1)C1CCCCC1)N(C#N)Cc1ccc(Cl)cc1,7.60
2,CN(C(=O)[C@H](Cc1cccs1)NC(=O)[C@@H](NC(=O)c1cccs1)C(C)(C)C)N(C#N)Cc1cccc(Cl)c1F,6.89
3,CN(C(=O)[C@H](Cc1ccccc1)NC(=O)[C@@H](NC(=O)c1cccs1)C(C)(C)C)N(C#N)Cc1cccc(Cl)c1F,7.03
4,CN(C(=O)[C@H](Cc1ccccc1Cl)NC(=O)[C@@H](NC(=O)c1cccs1)C(C)(C)C)N(C#N)Cc1cccc(Cl)c1F,7.25
5,CN(C(=O)[C@H](Cc1cccc(Cl)c1)NC(=O)[C@@H](NC(=O)c1cccs1)C(C)(C)C)N(C#N)Cc1cccc(Cl)c1F,6.79
6,CN(C(=O)[C@H](Cc1cccc(F)c1)NC(=O)[C@@H](NC(=O)c1cccs1)C(C)(C)C)N(C#N)Cc1cccc(Cl)c1F,6.75
7,CN(C(=O)[C@H](Cc1ccccc1F)NC(=O)[C@@H](NC(=O)c1cccs1)C(C)(C)C)N(C#N)Cc1cccc(Cl)c1F,7.30

# Molecular target: Replicase polyprotein 1ab (Severe acute respiratory syndrome coronavirus 2) (UniProt P0DTD1)
# Details: dose 1.0 µM, time 65.0 min
row,Compound,inhibition [%]
1,COc1cccc(NC2(C(=O)N[C@@H](Cc3ccccc3)C(=O)N(C)N(C#N)Cc3ccc(Cl)cc3)CCCC2)c1,12
2,CN(C(=O)[C@H](Cc1ccccc1)NC(=O)[C@@H]1Cc2ccccc2CN1C(=O)c1cccs1)N(C#N)Cc1ccc(Cl)cc1,21
3,CN(C(=O)[C@@H](NC(=O)[C@@H](NC(=O)c1cccs1)C(C)(C)C)C1CCCCC1)N(C#N)Cc1cccc(Cl)c1F,21
4,CN(C(=O)[C@H](Cc1ccccc1)NC(=O)C1(Oc2ccc(Cl)cc2Cl)CCC1)N(C#N)Cc1ccc(Cl)cc1,8
5,CN(C(=O)[C@@H](NC(=O)[C@@H](NC(=O)c1cccs1)C(C)(C)C)C(c1ccccc1)c1ccccc1)N(C#N)Cc1cccc(Cl)c1F,10
6,CN(C(=O)[C@@H]1Cc2ccccc2CN1C(=O)COc1ccc(Cl)cc1Cl)N(C#N)Cc1ccc(Cl)cc1,11
7,CN(C(=O)[C@H](Cc1ccccc1)NC(=O)C1(Oc2ccc(Cl)cc2Cl)CCCCC1)N(C#N)Cc1ccc(Cl)cc1,7
8,CN(C(=O)[C@H](Cc1ccccc1)NC(=O)[C@@H]1CCCN1C(=O)c1cccs1)N(C#N)Cc1ccc(Cl)cc1,13
9,CN(C(=O)[C@@H]1CCCN1C(=O)[C@@H](NC(=O)c1cccs1)C(C)(C)C)N(C#N)Cc1cccc(Cl)c1F,5
10,CN(C(=O)[C@H](Cc1ccccc1)NC(=O)OCc1ccccc1)N(C#N)CC1CCNC1=O (stereo partly specified),21
11,CN(C(=O)[C@H](Cc1ccc(Cl)cc1)NC(=O)[C@@H](NC(=O)c1cccs1)C(C)(C)C)N(C#N)Cc1cccc(Cl)c1F,6
12,CC(C)c1ccc(OCC(=O)N[C@@H](Cc2ccccc2)C(=O)N(C)N(C#N)Cc2ccc(Cl)cc2)cc1,21
13,CN(C(=O)[C@H](Cc1ccccc1)NC(=O)C(C)(C)Oc1ccc(Cl)cc1Cl)N(C#N)Cc1ccc(Cl)cc1,17
14,CN(C(=O)[C@@H]1Cc2ccccc2CN1C(=O)OCc1ccccc1)N(C#N)Cc1ccc(Cl)cc1,26
